Assay results as given in patent US20110053897A1 (IRM LLC, priority 2009, published 2011).

target: T1, Syk kinase (Homo sapiens, UniProt P43405); test: Syk kinase inhibition, Caliper LabChip off-chip mobility-shift kinase assay; type: biochemical; conditions: read-out: Syk Enzyme IC50
T1 construct: purchased
Method: Compounds of the examples and Table 1 provided herein were assayed to measure their capacity to inhibit Syk kinase.
Compounds of the examples and Table 1 provided herein were assessed for their ability to inhibit Syk kinase by utilizing Caliper Life Sciences' proprietary LabChip™ technology. The off-chip incubation mobility-shift kinase assay uses a microfluidic chip to measure the conversion of a fluorescent peptide substrate to a phosphorylated product. The reaction mixture, from a microtiter plate well, is introduced through a capillary sipper onto the chip, where the nonphosphorylated substrate and phosphorylated product are separated by electrophoresis and detected via laser induced fluorescence. […] The phosphorylated product migrates through the chip faster than the non-phosphorylated substrate, and signals from the two forms of the peptide appear as distinct peaks. Caliper's data analysis software (HTSWA) determines peak heights, from which the ratio of product to the peak sum P/(P+S) and percent (%) conversion is calculated. This value is used to compare compound wells to control wells present on the plate, and thereby determine the % inhibition values for the compound. The formula used to calculate % inhibition is as follows, where C100% is the average % conversion of the 100% activity wells and Co% is the average % conversion of the 0% activity wells: (1−(% conversionofsample−C0%)/(C100%−C0%))*100.
Compounds (10 mM stocks in 100% DMSO) are diluted to a final concentration of 5 μM for single point inhibition experiments, and a series dilution of 10, 3, 1, 0.3, 0.1, 0.03, 0.01, 0.003, 0.001, 0.0003, 0.0001, and 0.00003 μM were made for IC50 determination. Generally, 12 μL of enzyme buffer containing purified kinase (various amount; various suppliers), 100 mM HEPES, pH 7.5, 1 mM DTT (Calbiochem, 2333153), 10 mM MgCl2 (Sigma, M-1028) or 10 mM MnCl2 (Sigma, M-1787) (assay specific), and 0.002% Brij-35 (Sigma, B4184) are added to each well. Compound and enzyme are allowed to pre-incubate for 15 minutes. 12 μL of peptide/ATP buffer containing 100 mM HEPES, pH 7.5, 1.5 μM fluorescein-labeled peptide (specific to kinase of interest), ATP (at KM apparent, Sigma, A9187), and 0.002% Brij-35 is then added to each well to initiate the reaction. The final concentration of DMSO in the well is 4%. Generally, reactions are incubated for 1 to 1.5 hours at room temperature to obtain adequate conversion of peptide to phosphorylated product in the linear range of the reaction. Reactions are terminated with the addition of 45 μL of Stop Buffer (containing 20 mM EDTA). Plates are then read on the LabChip 3000 using a 12-sipper LabChip. % conversion values and % inhibition values are obtained as provided and IC50 curves of compounds are generated using GraphPad Prism Version 4 or 5.01, or XLfit Version 4.3.2. When using GraphPad Prism, a nonlinear curve fit using the sigmoidal dose response—variable slope fit was used to graph IC50 curves and determine IC50 values and hillslopes. When using XLfit, Fit Model 205 (4-Parameter Logistic Model) is used to generate and fit the IC50 curve.

IC50 [nM]	SMILES
53	COc1cncc(-c2cc3cc[nH]c(=O)c3c(Nc3ccc(C4CCN(C(=O)C5(C)COC5)CC4)c(C)c3)n2)n1 [compound 75]
225	CCC(C)C(=O)N1CCC(c2ccc(Nc3nc(-c4cncc(OC)n4)cc4cc[nH]c(=O)c34)cc2C)CC1 (centres unmarked) [compound 76]
27	COc1cncc(-c2cc3cc[nH]c(=O)c3c(Nc3ccc(C4CCN(CCF)CC4)c(C)c3)n2)n1 [compound 79]
63	CCC(=O)N1CCC(c2ccc(Nc3nc(-c4cncc(OC)n4)cc4cc[nH]c(=O)c34)cc2C)CC1 [compound 80]
4	COc1cncc(-c2cc3cc[nH]c(=O)c3c(Nc3ccc(C4CCN(CC5CC5)CC4)c(C)c3)n2)n1 [compound 81]
5	CNC(C)(C)C(=O)N1CCC(c2ccc(Nc3nc(-c4cncc(OC)n4)cc4cc[nH]c(=O)c34)cc2C)CC1 [compound 84]
78	CCOCCN1CCC(c2ccc(Nc3nc(-c4cncc(OC)n4)cc4cc[nH]c(=O)c34)cc2C)CC1 [compound 85]
55	COc1cncc(-c2cc3cc[nH]c(=O)c3c(Nc3ccc(C4CCN(C(=O)C5CCOC5)CC4)c(C)c3)n2)n1 (centres unmarked) [compound 89]
204	COCC(Cl)C(=O)N1CCC(c2ccc(Nc3nc(-c4cncc(OC)n4)cc4cc[nH]c(=O)c34)cc2C)CC1 (centres unmarked) [compound 90]
2320	COc1cncc(-c2cc3cc[nH]c(=O)c3c(Nc3ccc(C4CCN(C(=O)N5CCCC5)CC4)c(C)c3)n2)n1 [compound 113]
174	COc1cncc(-c2cc3cc[nH]c(=O)c3c(Nc3ccc(C4CCN(C(=O)N5CCNC5=O)CC4)c(C)c3)n2)n1 [compound 114]
181	COc1cncc(-c2cc3cc[nH]c(=O)c3c(Nc3ccc(C4CCN(C(=O)N5CCOCC5)CC4)c(C)c3)n2)n1 [compound 115]
184	COC(=O)C(C)N1CCC(c2ccc(Nc3nc(-c4cncc(OC)n4)cc4cc[nH]c(=O)c34)cc2C)CC1 (centres unmarked) [compound 116]
22	COc1cncc(-c2cc3cc[nH]c(=O)c3c(Nc3ccc(C4CCN(C(C)C(=O)O)CC4)c(C)c3)n2)n1 (centres unmarked) [compound 117]
346	CCC(C(=O)OC)N1CCC(c2ccc(Nc3nc(-c4cncc(OC)n4)cc4cc[nH]c(=O)c34)cc2C)CC1 (centres unmarked) [compound 118]
5	CCC(C(=O)O)N1CCC(c2ccc(Nc3nc(-c4cncc(OC)n4)cc4cc[nH]c(=O)c34)cc2C)CC1 (centres unmarked) [compound 119]
23	CCNC(=O)C(C)N1CCC(c2ccc(Nc3nc(-c4cncc(OC)n4)cc4cc[nH]c(=O)c34)cc2C)CC1 (centres unmarked) [compound 120]
92	COc1cncc(-c2cc3cc[nH]c(=O)c3c(Nc3ccc(C4CCN(C(C)C(=O)NCCO)CC4)c(C)c3)n2)n1 (centres unmarked) [compound 122]

Continued, compound first:

SMILES	IC50 [nM]
COc1cncc(-c2cc3cc[nH]c(=O)c3c(Nc3ccc(CCN4CCN(CCC#N)CC4)cc3)n2)n1 [compound 66]	55
Cc1cc(Nc2nc(-c3ccnc(N)n3)cc3cc[nH]c(=O)c23)ccc1C1CCN(CCC#N)CC1 [compound 67]	328
Cc1cc(Nc2nc(-c3cncc(NC4CC4)n3)cc3cc[nH]c(=O)c23)ccc1C1CCN(CCC#N)CC1 [compound 68]	89
Cc1cc(Nc2nc(-c3cnc(N)c(C)c3)cc3cc[nH]c(=O)c23)ccc1C1CCN(CCC#N)CC1 [compound 69]	28
Cc1cc(-c2cc3cc[nH]c(=O)c3c(Nc3ccc(C4CCN(CCC#N)CC4)c(C)c3)n2)nc(N)n1 [compound 70]	344
COCCN1CCC(c2ccc(Nc3nc(-c4cnc(C)nc4)cc4cc[nH]c(=O)c34)cc2C)CC1 [compound 71]	14
Cc1ncc(-c2cc3cc[nH]c(=O)c3c(Nc3ccc(C4CCN(CCCF)CC4)c(C)c3)n2)cn1 [compound 72]	12
Cc1ncc(-c2cc3cc[nH]c(=O)c3c(Nc3ccc(C4CCN(CCC#N)CC4)c(C)c3)n2)cn1 [compound 73]	81
COCCNC(=O)c1ccc(Nc2nc(-c3cnc(C)nc3)cc3cc[nH]c(=O)c23)cc1 [compound 74]	29
COc1cncc(-c2cc3cc[nH]c(=O)c3c(Nc3ccc(C4CCN(CC5CCCO5)CC4)c(C)c3)n2)n1 (centres unmarked) [compound 77]	115
COc1cncc(-c2cc3cc[nH]c(=O)c3c(Nc3ccc(C4CCN(CC5CC5(F)F)CC4)c(C)c3)n2)n1 (centres unmarked) [compound 78]	129
COc1cncc(-c2cc3cc[nH]c(=O)c3c(Nc3ccc(C(=O)NCCN4CCCC4)cc3)n2)n1 [compound 82]	14
CCN1CCC[C@@H]1CNC(=O)c1ccc(Nc2nc(-c3cncc(OC)n3)cc3cc[nH]c(=O)c23)cc1 [compound 83]	14
O=c1[nH]ccc2cc(C3=CCOCC3)nc(Nc3ccc(N4CCOCC4)cc3)c12 [compound 86]	96
O=c1[nH]ccc2cc(C3CCOCC3)nc(Nc3ccc(N4CCOCC4)cc3)c12 [compound 87]	58
O=c1[nH]ccc2cc(C3=CCNCC3)nc(Nc3ccc(N4CCOCC4)cc3)c12 [compound 88]	51
O=C1CCC(c2ccc(Nc3nc(-c4cncnc4)cc4cc[nH]c(=O)c34)cc2)CC1 [compound 91]	400
CN(C)[C@H]1CC[C@H](c2ccc(Nc3nc(-c4cncnc4)cc4cc[nH]c(=O)c34)cc2)CC1 [compound 92]	45
C[C@@H]1CN([C@H]2CC[C@H](c3ccc(Nc4nc(-c5cncnc5)cc5cc[nH]c(=O)c45)cc3)CC2)CCO1 [compound 93]	433

SMILES	IC50 [nM]
CC(C)(C)N1CC=C(c2ccc(Nc3nc(-c4cncnc4)cc4cc[nH]c(=O)c34)cc2)CC1 [compound 94]	13
COc1cncc(-c2cc3cc[nH]c(=O)c3c(Nc3ccc4c(c3)C3CC4CN(C(=O)C(F)(F)F)C3)n2)n1 (centres unmarked) [compound 95]	2370
COc1cncc(-c2cc3cc[nH]c(=O)c3c(Nc3ccc4c(c3)C3CNCC4C3)n2)n1 (centres unmarked) [compound 96]	1660
O=C(N1CC2CC(C1)c1cc(Nc3nc(-c4cnccn4)cc4cc[nH]c(=O)c34)ccc12)C(F)(F)F (centres unmarked) [compound 97]	2500
O=c1[nH]ccc2cc(-c3cnccn3)nc(Nc3ccc4c(c3)C3CNCC4C3)c12 (centres unmarked) [compound 98]	1520
Cn1cc(-c2cc3cc[nH]c(=O)c3c(Nc3ccc([C@H]4CC[C@H](N5CCOCC5)CC4)cc3)n2)cn1 [compound 99]	168
Cc1cc(-c2cc3cc[nH]c(=O)c3c(Nc3ccc([C@H]4CC[C@H](N5CCOCC5)CC4)cc3)n2)cnc1N [compound 100]	193
Cc1nc(N)ncc1-c1cc2cc[nH]c(=O)c2c(Nc2ccc([C@H]3CC[C@H](N4CCOCC4)CC3)cc2)n1 [compound 101]	668
Cc1nc(-c2cc3cc[nH]c(=O)c3c(Nc3ccc([C@H]4CC[C@H](N5CCOCC5)CC4)cc3)n2)cnc1N [compound 102]	226
CN1CCN([C@H]2CC[C@H](c3ccc(Nc4nc(-c5cncnc5)cc5cc[nH]c(=O)c45)cc3)CC2)CC1 [compound 103]	59
CN1CCN(C2CCC(c3ccc(Nc4nc(-c5cncnc5)cc5cc[nH]c(=O)c45)cc3)CC2)CC1 (centres unmarked) [compound 104]	31
Cc1ncc(-c2cc3cc[nH]c(=O)c3c(Nc3ccc(C4CCC(N(C)C)CC4)cc3)n2)cn1 (centres unmarked) [compound 106]	67
Cc1ncc(-c2cc3cc[nH]c(=O)c3c(Nc3ccc(C4CCN(C5CS(=O)(=O)C5)CC4)c(C)c3)n2)cn1 [compound 107]	117
CCN1CCN(C2CCC(c3ccc(Nc4nc(-c5cncnc5)cc5cc[nH]c(=O)c45)cc3)CC2)CC1 (centres unmarked) [compound 108]	116
COc1cncc(-c2cc3cc[nH]c(=O)c3c(Nc3ccc(C4CCC(N(C)C)CC4)cc3)n2)n1 (centres unmarked) [compound 109]	31
O=c1[nH]ccc2cc(-c3cncnc3)nc(Nc3ccc([C@H]4CC[C@H](N5CCOCC5)CC4)cc3)c12 [compound 111]	190
COc1cncc(-c2cc3cc[nH]c(=O)c3c(Nc3ccc(C4CCN(C(C)C(=O)NC5CC5)CC4)c(C)c3)n2)n1 (centres unmarked) [compound 121]	183
COCCNC(=O)C(C)N1CCC(c2ccc(Nc3nc(-c4cncc(OC)n4)cc4cc[nH]c(=O)c34)cc2C)CC1 (centres unmarked) [compound 123]	150
Cc1ccc(-c2cc3cc[nH]c(=O)c3c(Nc3cnn(CCN4CCOCC4)c3)n2)cn1 [compound 126]	100
